Source: US20250255792A1, “Methods of Using a Small Molecule Chemical Compound to Reduce the Appearance of Rhytids and Wrinkles” (BirchBioMed Inc., priority 2022, published 2025)
Entries after “also recorded” stand apart in the source; their conditions may differ.

What was measured:
[1] = system: rabbit ear hypertrophic scarring model; settings: topical application to skin tissue; cited from earlier work
MMP-1 = settings: dermal fibroblasts; cited from earlier work
[2] = target: T1, aryl hydrocarbon receptor (AhR) (Homo sapiens, UniProt P35869); settings: cited from earlier work
T1 sequence (P35869 11-848): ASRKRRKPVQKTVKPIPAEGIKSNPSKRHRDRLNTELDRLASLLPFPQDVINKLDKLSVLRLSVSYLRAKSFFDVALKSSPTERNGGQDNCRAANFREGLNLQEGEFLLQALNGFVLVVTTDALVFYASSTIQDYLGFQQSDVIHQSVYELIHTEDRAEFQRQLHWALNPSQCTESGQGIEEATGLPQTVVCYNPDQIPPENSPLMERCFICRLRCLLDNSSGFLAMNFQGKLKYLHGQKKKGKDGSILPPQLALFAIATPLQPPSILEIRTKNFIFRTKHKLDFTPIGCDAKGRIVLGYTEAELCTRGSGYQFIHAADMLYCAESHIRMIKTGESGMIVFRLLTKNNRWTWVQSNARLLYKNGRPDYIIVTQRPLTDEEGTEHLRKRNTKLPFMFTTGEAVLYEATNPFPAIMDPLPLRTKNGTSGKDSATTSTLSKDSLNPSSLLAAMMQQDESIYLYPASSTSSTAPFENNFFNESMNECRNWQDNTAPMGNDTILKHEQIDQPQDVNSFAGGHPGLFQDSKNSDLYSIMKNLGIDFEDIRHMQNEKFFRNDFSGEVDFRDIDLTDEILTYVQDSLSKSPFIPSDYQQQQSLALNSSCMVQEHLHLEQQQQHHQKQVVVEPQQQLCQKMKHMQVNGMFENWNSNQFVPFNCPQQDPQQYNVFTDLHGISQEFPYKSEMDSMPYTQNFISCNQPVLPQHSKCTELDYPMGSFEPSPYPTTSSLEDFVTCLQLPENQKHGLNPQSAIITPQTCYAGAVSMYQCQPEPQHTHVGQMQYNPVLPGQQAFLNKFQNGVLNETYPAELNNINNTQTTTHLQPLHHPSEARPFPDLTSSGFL

collagen 1 = settings: dermal fibroblasts; cited from earlier work
[3] = system: UVB-induced wrinkle formation; settings: animal model (Kim, 2022); cited from earlier work
MMP-3 = settings: dermal fibroblasts; cited from earlier work
fibronectin = settings: dermal fibroblasts; cited from earlier work
[4] = system: rhytids and wrinkles on the face; test: Topical use of 0.5% kynurenic acid cream on facial rhytids and wrinkles (self-reported, visual inspection); assay type: in vivo, human; settings: person, approx. 3 mg per application
Description: (§1) Initial dermatological effects can be followed by visual inspection of the site.
as §1

Molecule	MMP-1 relative to controls [1]	collagen relative to controls [1]	MMP-1 expression (MMP-1)	AhR agonist / antagonist activity [2]	collagen 1 expression (collagen 1)	UVB-induced wrinkle formation [3]	MMP-3 expression (MMP-3)	fibronectin expression (fibronectin)	visibility of rhytids and wrinkles (user-reported) ([4]; topical cream 0.5% kynurenic acid by weight once a day, approx. 80 micrograms per square cm, after a 2-month period)	appearance and visibility of rhytids and wrinkles (subject-reported) ([4]; topical cream 0.5% kynurenic acid by weight twice daily, approx. 60 micrograms per square cm, approx. two-month period)
Nc1ccccc1C(=O)CC(N)C(=O)O (racemic) [kynurenine]	increased	decreased	increase MMP production	AhR agonists	suppress collagen production	–	–	–	–	–
Nc1nc2ncc(CNc3ccc(C(=O)N[C@@H](CCC(=O)O)C(=O)O)cc3)nc2c(=O)[nH]1 [folic acid]	–	–	–	AhR antagonists	–	helped reduce; also recorded: ameliorated	–	–	–	–
O=C(O)c1cc(=O)c2ccccc2[nH]1 [kynurenic acid]	–	–	increase expression; also recorded: increase MMP production; also recorded: upregulate	–	downregulate; also recorded: suppress collagen production	–	increase expression; also recorded: upregulate	downregulate	less visible and less noticeable	perceptible and noticeable reduction
vitamin B12	–	–	–	AhR antagonists	–	helped reduce; also recorded: ameliorated	–	–	–	–
